Results published in patent publication US20160279043A1, “COMBINATIONS OF N-ACETYL CYSTEINE DERIVATIVES AND CRANBERRY POLYPHENOLS IN COMPOSITIONS AND METHODS FOR PREVENTING AND TREATING PERIODONTAL DISEASES AND PERI-IMPLATITIS” (DENTALMED PHARM HOLDING LTD., priority 2013, published 2016).
“Also recorded” adds a separate entry of the source.

What was measured:
[1] = system: Aggregibcater actynomycetemcomitans; experiment: Pre-formed biofilm challenge, MBEC P&G assay, LOG10 reduction; assay type: cell-based, Aggregibcater actynomycetemcomitans (ATCC 43717)
Description: (§1) Sterile MBEC™ P&G plates coated with Hydroxyapatite were used for biofilm growth. The plates consist of plastic lids with 96 protruding polystyrene pegs that have each been coated with hydroxyapatite and a corresponding 96 well base into which the inoculum is placed. The bacterial inoculum for each plate is 150 μL in each well (Innovotech Inc., Edmonton, Alberta, Canada).
(§2) Using a cryogenic stock (at −70° C.), a first sub-culture of the bacterial organisms listed above was streaked out on an organism specific agar (OSA). The bacterium was incubated at appropriate growth conditions for 24-48 hours and the plate was stored wrapped in parafilm at 4° C. for the aerobic strain (Aggregibcater actynomycetemcomitans) and 21° C. in the anaerobic chamber for anaerobic strain (Porphyromonas gingivalis). From the first sub-culture, a second sub-culture was streaked out on OSA. It was incubated at appropriate growth conditions for 24-48 hours. The second sub-culture was used within 24 hours starting from the time it was first removed from incubation. Using the second sub-culture, an isolated colony was aseptically removed from the OSA plate and inoculated into 100 mL of sterile bacterial liquid growth broth. The latter was incubated at 150 rpm at appropriate growth conditions for 24-24 hour. This yielded a viable bacterial density of approximately 10^9 CFU/mL and was checked by serial dilution and plating. The inoculum was adjusted to an approximate cell density of 10^6 CFU/mL by diluting in organism specific broth (OSB). The diluted organism was vortexed for approximately 10 seconds to achieve uniform mixing of the organism. One sample (100 μL) of the diluted organism was used for an inoculum check by serially diluting and spot plating on OSA in triplicate. It should be noted that for the anaerobic microorganism, growth, sonication, serial dilution, transfer and recovery of the organism was performed under anaerobic conditions (5% H2, 10% CO2, 85% N2).
(§3) Each bacterial over-night culture was diluted 1,000× in its specific OSM. Using a micro pipette, 150 μL of inoculum was added to the appropriate wells of a 96 well plate, except for wells that served as sterility controls (SC). Sterility control wells received sterile OSB. The HA MBEC™ P&G lid was then inserted into the 96-well bottom. It should be noted that the volume of inoculum used in this step has been calibrated such that the biofilm covers a surface area that is immersed, entirely, by the volume of antimicrobials used in the challenge plate set up. The device was placed on the gyrorotary shaker in a humidified incubator and incubated at 110 rpm at the appropriate growth conditions. Porphyromonas gingivalis was incubated for 24 hours, and Aggregibcater actynomycetemcomitans was incubated for 48 hours. A triplicate sample of the inoculum was serially diluted (ten-fold). The latter served as controls used to verify the starting cell number in the inoculum. The serial 10-fold dilutions of the inoculum from 10^−7 to 10^0 were spot plated on an appropriately labeled series of agar plates. The spot plates were incubated for an appropriate period of time and scored for growth.
(§4) The biofilm growth check (GCh) pegs were broken off from the challenge plate with flamed pliers. Each peg was placed into 200 μL of neutralizer in row A of serial dilution plate. The plates were sonicated for 30 minutes. Then serial dilution and spot plating on OSA was performed, which served as a biofilm growth check.
(§5) Biofilms were tested using the specified contact times. Callenge plates were used for testing the killing activity of the tested biocidic compounds on formed biofilm and other plates to test the inhibitory effect of biofilm formation. SC wells served as sterility controls for each experiment. One challenge plate was used per growth condition and challenge time. GC is the growth control. GCh is the biofilm Growth Check. […]

Porphyromonas gingivalis [2] = experiment: as above; assay type: cell-based, Porphyromonas gingivalis (ATCC 33277)
Description: as §1, §2, §3, §4, §5

[3] = system: Aggregibcater actynomycetemcomitans; experiment: Growth inhibition, LOG10 reduction; assay type: cell-based, Aggregibcater actynomycetemcomitans (ATCC 43717)
Description: as §2
(§6) Biofilms were tested using the specified contact times. Callenge plates were used for testing the killing activity of the tested biocidic compounds on formed biofilm and other plates to test the inhibitory effect of biofilm formation. SC wells served as sterility controls for each experiment. One challenge plate was used per growth condition and challenge time. GC is the growth control. GCh is the biofilm Growth Check.
(§7) Using a sterile 96-well microtitre plate the following was done aseptically to set up the above challenge plates. 200 μL of sterile OSM was added to wells that served as the device sterility control for the media and for biofilm growth checks. 200 μL of sterile neutralizer was added to wells that served as the neutralizer toxicity control. 100 μL of the neutralizer and 100 μL of each of the tested compounds or combinations were added to wells serving as neutralizer affectivity control. 200 μL of biocide stock solution was added to wells which served as the biocide diluent sterility control. Serial dilutions of the tested compounds and combinations in the diluents (OSM) were performed. Each freshly prepared challenge plate was aseptically covered and left to stand at room temperature for 30 minutes to equilibrate prior to use.
(§8) Following sonication of all plates, 100 μL was placed from each well of the MBEC™ plate into the first 12 empty wells of the first row of a 96 well-micro titer plate. 180 μL of sterile 0.9% saline were placed in the remaining rows. A Serial dilution (10^0-10^−7) was performed by moving 20 μL down each of the 8 rows. 10 μL were removed from each well and spot plated on prepared OSA plates. Plates were incubated at 37±1° C. and counted after approximately 24-48 hours of incubation. The data obtained was evaluated as Log 10 CFU/peg. 100 μL of the sterile neutralizer were placed in each well of the recovery plate to top up the volume back to 200 μL.
(§9) LOG10 Reduction=Mean LOG10 Growth Control−Mean LOG10 Test.

Porphyromonas gingivalis [4] = experiment: Growth inhibition, LOG10 reduction; assay type: cell-based, Porphyromonas gingivalis (ATCC 33277)
Description: as §2, §6, §7, §8, §9

[5] = system: Aggregibcater actynomycetemcomitans; experiment: Planktonic MIC; assay type: cell-based, Aggregibcater actynomycetemcomitans (ATCC 43717); details: Compound A alone; 24 hours
Description: (§10) The MIC (minimum inhibitory concentration) for the compound was determined for each organism shed from the biofilm during the challenge incubation. The MIC was defined as the minimum concentration that inhibits growth of the organism.

Porphyromonas gingivalis [6] = experiment: Planktonic MIC; assay type: cell-based, Porphyromonas gingivalis (ATCC 33277); details: Compound A alone; 24 hours
Description: as §10

[7] = system: Aggregibcater actynomycetemcomitans; experiment: Planktonic minimum bactericidal concentration (MBC); assay type: cell-based, Aggregibcater actynomycetemcomitans (ATCC 43717); details: Compound A alone; 24 hours contact
Description: (§11) After the specified contact time (24 hours), 20 μL from each well of the challenge plate were removed and placed into the corresponding wells of a fresh 96 well Nunc plate containing 180 μL OSM. The plate was incubated at 37° C. for 24 hours.

Porphyromonas gingivalis [8] = experiment: as above; assay type: cell-based, Porphyromonas gingivalis (ATCC 33277); details: Compound A alone; 24 hours contact
Description: as §11

[9] = system: Aggregibcater actynomycetemcomitans; experiment: Biofilm MBEC; assay type: cell-based, Aggregibcater actynomycetemcomitans (ATCC 43717); details: Compound A alone
Description: (§12) MBEC is defined as the minimum concentration of test compound that inhibits growth of the biofilm. The recovery plate prepared according to the description above was incubated at 37° C. for 24 hours and read visually to determine MBEC values. A microtiter plate reader was used to obtain optical density measurements at 630 nm (OD630). Clear wells (OD630<0.1) ware evidence of biofilm eradication.

Porphyromonas gingivalis [10] = experiment: Biofilm MBEC; assay type: cell-based, Porphyromonas gingivalis (ATCC 33277); details: Compound A alone
Description: as §12

[11] = Compound A, all tested concentrations

In the case of `CC(=O)N[C@@H](CS)C(=O)O` [Compound A, N-acetyl cysteine], the “Log Reduction, Biofilm, A.a.” value ([1]; Compound A 0.15%) is reported as 0.51 log, the “Log Reduction, Biofilm, A.a.” value ([1]; Compound A 0.31%) is reported as −0.02 log and the “Log Reduction, Biofilm, A.a.” value ([1]; Compound A 0.62%) is reported as 0.23 log. The “Log Reduction, Biofilm, A.a.” value ([1]; Compound A 1.25%) was 0.36 log, the “Log Reduction, Biofilm, A.a.” value ([1]; Compound A 2.50%) was −0.01 log and the “Log Reduction, Biofilm, A.a.” value ([1]; Compound A 5%) was 0.39 log. For the same compound, the “Log Reduction, Biofilm, A.a.” value ([1]; Compound A 10%) was 3.02 log, the “Log Reduction, Biofilm, A.a.” value ([1]; Compound A 20%) was 3.25 log and the “Log Reduction, Biofilm, P. gingivalis” value (Porphyromonas gingivalis [2]; Compound A 0.15%) was 0.11 log. For the same compound, the “Log Reduction, Biofilm, P. gingivalis” value (Porphyromonas gingivalis [2]; Compound A 0.31%) was 0.07 log, the “Log Reduction, Biofilm, P. gingivalis” value (Porphyromonas gingivalis [2]; Compound A 0.62%) was −0.07 log and the “Log Reduction, Biofilm, P. gingivalis” value (Porphyromonas gingivalis [2]; Compound A 1.25%) was −0.18 log. The “Log Reduction, Biofilm, P. gingivalis” value (Porphyromonas gingivalis [2]; Compound A 2.50%) was 0.13 log, the “Log Reduction, Biofilm, P. gingivalis” value (Porphyromonas gingivalis [2]; Compound A 5%) was −0.18 log and the “Log Reduction, Biofilm, P. gingivalis” value (Porphyromonas gingivalis [2]; Compound A 10%) was −0.17 log. The “Log Reduction, Biofilm, P. gingivalis” value (Porphyromonas gingivalis [2]; Compound A 20%) was 0.13 log, the “Reducing preformed biofilm of P. gingivalis (in words)” value (Porphyromonas gingivalis [2]; [11]) was “ineffective; also recorded: No inhibition or biofilm reduction” and the “Log Reduction, Growth Inhibition, A.a.” value ([3]; Compound A 0.15%) was 0.24 log. For the same compound, the “Log Reduction, Growth Inhibition, A.a.” value ([3]; Compound A 0.31%) was 0.28 log, the “Log Reduction, Growth Inhibition, A.a.” value ([3]; Compound A 0.62%) was 0.74 log and the “Log Reduction, Growth Inhibition, A.a.” value ([3]; Compound A 1.25%) was 1.04 log. For the same compound, the “Log Reduction, Growth Inhibition, A.a.” value ([3]; Compound A 2.50%) was 1.13 log, the “Log Reduction, Growth Inhibition, A.a.” value ([3]; Compound A 5%) was 2.05 log and the “Log Reduction, Growth Inhibition, A.a.” value ([3]; Compound A 10%) was 6.34 log. For the same compound, the “Log Reduction, Growth Inhibition, A.a.” value ([3]; Compound A 20%) was 6.34 log, the “Inhibiting growth of A.a. (in words)” value ([3]; Compound A, only at 20% and 10% of the stock concentration) was “effective at inhibiting growth” and the “Log Reduction, Growth Inhibition, P. gingivalis” value (Porphyromonas gingivalis [4]; Compound A 0.15%) was −0.89 log. For the same compound, the “Log Reduction, Growth Inhibition, P. gingivalis” value (Porphyromonas gingivalis [4]; Compound A 0.31%) was −0.05 log, the “Log Reduction, Growth Inhibition, P. gingivalis” value (Porphyromonas gingivalis [4]; Compound A 0.62%) was 0.35 log and the “Log Reduction, Growth Inhibition, P. gingivalis” value (Porphyromonas gingivalis [4]; Compound A 1.25%) was 0.44 log. The “Log Reduction, Growth Inhibition, P. gingivalis” value (Porphyromonas gingivalis [4]; Compound A 2.50%) was 0.11 log, the “Log Reduction, Growth Inhibition, P. gingivalis” value (Porphyromonas gingivalis [4]; Compound A 5%) was −0.19 log and the “Log Reduction, Growth Inhibition, P. gingivalis” value (Porphyromonas gingivalis [4]; Compound A 10%) was −0.71 log. For the same compound, the “Log Reduction, Growth Inhibition, P. gingivalis” value (Porphyromonas gingivalis [4]; Compound A 20%) was 0.36 log, the “Inhibiting growth of P. gingivalis (in words)” value (Porphyromonas gingivalis [4]; [11]) was “ineffective; also recorded: No inhibition” and the “MIC Cut-off, A.a.” value [5] was 10%. The “MIC Cut-off, P. gingivalis” value (Porphyromonas gingivalis [6]) was over 20%, the “MBC Cut-off, A.a.” value [7] was over 20% and the “MBC Cut-off, P. gingivalis” value (Porphyromonas gingivalis [8]) was over 20%. The “MBEC Cut-off, A.a.” value [9] was over 20% and the “MBEC Cut-off, P. gingivalis” value (Porphyromonas gingivalis [10]) was over 20%.
